Data from paper PMC10927086, “Effects of structurally distinct human HDAC6 and HDAC6/HDAC8 inhibitors against S. mansoni larval and adult worm stages” (PLOS Neglected Tropical Diseases, 2024).

What was measured:
[1] = tested on: S. mansoni eggs laid by worm pairs; experiment: Egg counts and egg maturation staging (Vogel and Prata) in vitro; format: cell-based, Schistosoma mansoni; settings: exp4
Description: The eggs produced by worm pairs in vitro were counted at day 3 upon treatment using an inverted Leica DM IL microscope (Leica Microsystems, Wetzlar, Germany). Images were captured with a BX41 Olympus (Olympus, Tokyo, Japan) microscope and a brightfield objective 10× served by an Olympus DP23 microscope digital camera and visualized using “CellSens Entry” software (version 3.1.1). Egg maturation morphological score was assigned based on the Vogel and Prata’s staging system of egg maturation previously reported.
Therefore at 72 h upon worm pairs treatment the eggs were counted and classified by microscopic observation according to the Vogel and Prata staging system of egg maturation and grouped as immature (stages I and II), intermediate/developed (stages III–V), viable or damaged eggs.
Panel B. Histograms represent the percentages of eggs at different maturation stages +/- SEM counted at 72 h after treatment; 5–6 microscopy images of at least 3 independent experiments were analyzed. Filled red triangles indicate viable eggs at stages I–II (immature); empty red triangles indicate damaged/morphological abnormal eggs at stages I–II (immature); filled red arrows indicate viable eggs at stages III–V (intermediate/developed); empty red arrows indicate damaged/morphological abnormal eggs at stages III-V; ef, egg fragments; sp, sperm cells; oc, oocyte. Scale Bars = 200 μm.

[2] = MTT cytotoxicity assay on L929 fibroblasts; format: cell-based, murine; settings: mouse, compounds 100-0.78 μM, GA 10-0.078 μM, 2 independent experiments
Procedure: (§1) The NCTC clone 929 (L-929) murine fibroblast isolated from subcutaneous connective tissue (ATCC-CCL-1) were cultured in Dulbecco’s Modified Eagle Medium (DMEM) supplemented with 10 mM Hepes (pH 6.98–7.30), 1 mM l-glutamine, 100 U/ml of penicillin/streptomycin (BioWhittaker, Lonza, EuroClone SpA), and heat-inactivated 10% FBS. All cells were cultured at 37°C in a 5% CO2 humidified incubator.
(§2) The MTT method was employed as previously described to determine the viability of fibroblast cell lines. Briefly, cells seeded into 96-well plates at a density of 20,000 cells/well after overnight incubation, were exposed to selected compounds at the indicated concentrations for 24–72 h. Next they were gently washed, incubated with MTT (bromuro di 3-(4,5-dimetiltiazol-2-il)-2,5-diphenyltetrazolium) for 4 h, and processed for color detection with DMSO. The resulting purple solution was spectrophotometrically measured at 570 nm using a Varioskan Lux instrument and Skanit software (Thermo Fisher Scientific).
(§3) The optical density values for both assays were expressed as a percentage of cell survival and normalized with the value of cells treated with vehicle (DMSO), and the data were analyzed using GraphPad Prism v9.5.1 software (San Diego, CA, USA).
(§4) The cytotoxicity of the hit compounds was assessed in two independent experiments on murine L929 and human BJ fibroblasts at 24 h by MTT assays. Vehicle (DMSO) and Gambogic acid (GA) were used as negative and positive control respectively. The compounds show a safe profile on both cell lines (S2 Table).
(§5) The IC50(μM) shown was calculated by dose-response curves of the compounds on murine L929 and human BJ fibroblast cells. […] The data are representative of 2 independent experiments. Gambogic acid (GA) and vehicle (DMSO) were used as positive and negative controls respectively. (DOCX)

[3] = MTT cytotoxicity assay on BJ fibroblasts; format: cell-based; settings: human, compounds 100-0.78 μM, GA 10-0.078 μM, 2 independent experiments
Procedure: as §1, §2, §3, §4, §5

| SMILES | % Stage I/II damaged [1] | % Stage I/II viable [1] | %Stage II/IV/V viable [1] | %Stage III/IV/V damaged [1] | Stage I/II damaged counts [1] | Stage I/II viable (egg counts) [1] | Stage II/IV/V viable (egg counts) [1] | Stage III/IV/V damaged (egg counts) [1] | egg counts [1] | IC50 at 24 h [2] | IC50 at 24 h [3] |
| --- | --- | --- | --- | --- | --- | --- | --- | --- | --- | --- | --- |
| CC(/C=C/C(=O)NO)=C\[C@@H](C)C(=O)c1ccc(N(C)C)cc1 [TSA, Trichostatin A, reference compound] | 100.0% | 0.0% | 0.0% | 0.0% | 1431 | 0 | 0 | 0 | 1431 |  |  |
| CC(C)=CCC[C@]1(C)C=Cc2c(O)c3c(c(CC=C(C)C)c2O1)O[C@]12C(=C[C@@H]4C[C@H]1C(C)(C)O[C@@]2(C/C=C(/C)C(=O)O)C4=O)C3=O [GA, Gambogic acid, reference compound] |  |  |  |  |  |  |  |  |  | 0.5 µM | 0.35 µM |
